{
  "source": "ChEMBL document CHEMBL1201862",
  "about": "“PubChem BioAssay data set” (2004)",
  "test_in_all_cases": "NCI tumour cell line growth inhibition, 48 h",
  "key": {"COLO 205": {"test_system": "COLO 205"}, "M14": {"test_system": "M14"}, "M19-MEL": {"test_system": "M19-MEL"}, "ACHN": {"test_system": "ACHN"}, "RPMI-8226": {"test_system": "RPMI-8226"}, "UO-31": {"test_system": "UO-31"}, "DMS-114": {"test_system": "DMS-114"}, "HCT-116": {"test_system": "HCT-116"}, "XF498": {"test_system": "XF498"}, "OVCAR-3": {"test_system": "OVCAR-3"}, "NCI-H460": {"test_system": "NCI-H460"}, "EKVX": {"test_system": "EKVX"}, "HL-60": {"test_system": "HL-60"}, "HOP-92": {"test_system": "HOP-92"}, "HOP-62": {"test_system": "HOP-62"}, "UACC-257": {"test_system": "UACC-257"}, "SF-268": {"test_system": "SF-268"}, "DMS-273": {"test_system": "DMS-273"}, "DLD-1": {"test_system": "DLD-1"}, "SNB-19": {"test_system": "SNB-19"}, "UACC-62": {"test_system": "UACC-62"}, "SF-539": {"test_system": "SF-539"}, "HCT-15": {"test_system": "HCT-15"}, "HT-29": {"test_system": "HT-29"}, "U-251": {"test_system": "U-251"}, "SW-620": {"test_system": "SW-620"}, "SF-295": {"test_system": "SF-295"}, "K562": {"test_system": "K562"}, "A549": {"test_system": "A549"}, "TK-10": {"test_system": "TK-10"}, "SNB-78": {"test_system": "SNB-78"}, "Malme-3M": {"test_system": "Malme-3M"}, "MOLT-4": {"test_system": "MOLT-4"}, "KM-20L2": {"test_system": "KM-20L2"}, "NCI-H23": {"test_system": "NCI-H23"}, "KM12": {"test_system": "KM12"}, "HOP-18": {"test_system": "HOP-18"}, "HCC 2998": {"test_system": "HCC 2998"}, "SR": {"test_system": "SR"}, "LXFL 529": {"test_system": "LXFL 529"}, "A498": {"test_system": "A498"}, "OVCAR-5": {"test_system": "OVCAR-5"}, "SK-MEL-28": {"test_system": "SK-MEL-28"}, "OVCAR-4": {"test_system": "OVCAR-4"}, "SK-OV-3": {"test_system": "SK-OV-3"}, "SNB-75": {"test_system": "SNB-75"}, "RXF 631": {"test_system": "RXF 631"}, "SN12C": {"test_system": "SN12C"}, "SK-MEL-5": {"test_system": "SK-MEL-5"}, "OVCAR-8": {"test_system": "OVCAR-8"}, "NCI-H522": {"test_system": "NCI-H522"}, "786-0": {"test_system": "786-0"}, "IGROV-1": {"test_system": "IGROV-1"}, "NCI-H226": {"test_system": "NCI-H226"}, "SK-MEL-2": {"test_system": "SK-MEL-2"}, "RXF 393": {"test_system": "RXF 393"}, "LOX IMVI": {"test_system": "LOX IMVI"}, "CAKI-1": {"test_system": "CAKI-1"}, "CCRF-CEM": {"test_system": "CCRF-CEM"}},
  "note": "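Five concentrations, 48 hours, 96-well plates. Here, GI50 denotes the concentration required for 50% inhibition of growth.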 Active and inactive are the calls of the source. No stated cut-off is given here; in the data, active = GI50 up to about 1.1 µM and inactive = higher.",
  "data": [
    {"smiles": "[O-][n+]1c(-c2ccccc2)oc2ccccc21", "values": [
      {"measurement": "GI50", "setting": "COLO 205", "result": "18.6 µM (inactive)"},
      {"measurement": "GI50", "setting": "M14", "result": "11 µM (inactive)"},
      {"measurement": "GI50", "setting": "M19-MEL", "result": "1.89 µM (inactive)"},
      {"measurement": "GI50", "setting": "ACHN", "result": "15 µM (inactive)"},
      {"measurement": "GI50", "setting": "RPMI-8226", "result": "> 22.6 µM (inactive)"},
      {"measurement": "GI50", "setting": "UO-31", "result": "13.1 µM (inactive)"},
      {"measurement": "GI50", "setting": "DMS-114", "result": "3.48 µM (inactive)"},
      {"measurement": "GI50", "setting": "HCT-116", "result": "13.1 µM (inactive)"},
      {"measurement": "GI50", "setting": "XF498", "result": "35.6 µM (inactive)"},
      {"measurement": "GI50", "setting": "OVCAR-3", "result": "18.5 µM (inactive)"},
      {"measurement": "GI50", "setting": "NCI-H460", "result": "4.98 µM (inactive)"},
      {"measurement": "GI50", "setting": "EKVX", "result": "26.7 µM (inactive)"},
      {"measurement": "GI50", "setting": "HL-60", "result": "5.28 µM (inactive)"},
      {"measurement": "GI50", "setting": "HOP-92", "result": "> 100 µM (inactive)"},
      {"measurement": "GI50", "setting": "HOP-62", "result": "20.4 µM (inactive)"},
      {"measurement": "GI50", "setting": "UACC-257", "result": "7.71 µM (inactive)"},
      {"measurement": "GI50", "setting": "SF-268", "result": "26.9 µM (inactive)"},
      {"measurement": "GI50", "setting": "DMS-273", "result": "12.6 µM (inactive)"},
      {"measurement": "GI50", "setting": "DLD-1", "result": "7.82 µM (inactive)"},
      {"measurement": "GI50", "setting": "SNB-19", "result": "24.7 µM (inactive)"},
      {"measurement": "GI50", "setting": "UACC-62", "result": "8.69 µM (inactive)"},
      {"measurement": "GI50", "setting": "SF-539", "result": "16.3 µM (inactive)"},
      {"measurement": "GI50", "setting": "HCT-15", "result": 6.12, "unit": "µM"},
      {"measurement": "GI50", "setting": "HT-29", "result": "21.4 µM (inactive)"},
      {"measurement": "GI50", "setting": "U-251", "result": "18.9 µM (inactive)"},
      {"measurement": "GI50", "setting": "SW-620", "result": "16.6 µM (inactive)"},
      {"measurement": "GI50", "setting": "SF-295", "result": "14 µM (inactive)"},
      {"measurement": "GI50", "setting": "K562", "result": "11.9 µM (inactive)"},
      {"measurement": "GI50", "setting": "A549", "result": "4.6 µM (inactive)"},
      {"measurement": "GI50", "setting": "TK-10", "result": "26.6 µM (inactive)"},
      {"measurement": "GI50", "setting": "SNB-78", "result": "41.4 µM (inactive)"},
      {"measurement": "GI50", "setting": "Malme-3M", "result": "13 µM (inactive)"},
      {"measurement": "GI50", "setting": "MOLT-4", "result": "> 69.7 µM (inactive)"},
      {"measurement": "GI50", "setting": "KM-20L2", "result": "21.1 µM (inactive)"},
      {"measurement": "GI50", "setting": "NCI-H23", "result": "11.3 µM (inactive)"},
      {"measurement": "GI50", "setting": "KM12", "result": "17.3 µM (inactive)"},
      {"measurement": "GI50", "setting": "HOP-18", "result": "6.44 µM (inactive)"},
      {"measurement": "GI50", "setting": "HCC 2998", "result": "19.1 µM (inactive)"},
      {"measurement": "GI50", "setting": "SR", "result": "> 100 µM (inactive)"},
      {"measurement": "GI50", "setting": "LXFL 529", "result": "9.04 µM (inactive)"},
      {"measurement": "GI50", "setting": "A498", "result": "17.9 µM (inactive)"},
      {"measurement": "GI50", "setting": "OVCAR-5", "result": "33.8 µM (inactive)"},
      {"measurement": "GI50", "setting": "SK-MEL-28", "result": "18.1 µM (inactive)"},
      {"measurement": "GI50", "setting": "OVCAR-4", "result": "24.5 µM (inactive)"},
      {"measurement": "GI50", "setting": "SK-OV-3", "result": "> 67.5 µM (inactive)"},
      {"measurement": "GI50", "setting": "SNB-75", "result": "16.7 µM (inactive)"},
      {"measurement": "GI50", "setting": "RXF 631", "result": "47 µM (inactive)"},
      {"measurement": "GI50", "setting": "SN12C", "result": "14.4 µM (inactive)"},
      {"measurement": "GI50", "setting": "SK-MEL-5", "result": "2.25 µM (inactive)"},
      {"measurement": "GI50", "setting": "OVCAR-8", "result": "15.9 µM (inactive)"},
      {"measurement": "GI50", "setting": "NCI-H522", "result": "12 µM (inactive)"},
      {"measurement": "GI50", "setting": "786-0", "result": "22.6 µM (inactive)"},
      {"measurement": "GI50", "setting": "IGROV-1", "result": "34.1 µM (inactive)"},
      {"measurement": "GI50", "setting": "NCI-H226", "result": "30.8 µM (inactive)"},
      {"measurement": "GI50", "setting": "SK-MEL-2", "result": "17.7 µM (inactive)"},
      {"measurement": "GI50", "setting": "RXF 393", "result": "21.2 µM (inactive)"},
      {"measurement": "GI50", "setting": "LOX IMVI", "result": "3.07 µM (inactive)"},
      {"measurement": "GI50", "setting": "CAKI-1", "result": "> 41.1 µM (inactive)"},
      {"measurement": "GI50", "setting": "CCRF-CEM", "result": "> 62.1 µM (inactive)"}
    ]}
  ]
}
